Source: patent publication US20240140957A1, “BRIDGED COMPOUNDS AS KRAS G12D INHIBITOR AND DEGRADER AND THE USE THEREOF” (BeiGene Switzerland GmbH, priority 2021, published 2024)

Assays:
KRAS G12D:SOS1 = KRAS G12D:SOS1 (Homo sapiens, UniProt P01116, G12D); assay: KRAS G12D:SOS1 GDP TR-FRET assay; format: binding; conditions: GST-KRAS G12D 37.5 nM, GDP 10 μM, His-SOS1 18 nM
Method: (§1) KRAS:SOS1 GDP TR-FRET Assay
(§2) This assay was used to identify compounds which competitively interact with the binding of KRAS protein to SOS1 in the presence of GDP. […] All protein and reaction solutions were prepared in assay buffer containing DPBS pH7.5, 0.1% BSA, and 0.05% Tween 20. Purified GST-tagged WT KRAS or KRAS G12D protein (37.5 nM final assay concentration) and GDP (Sigma, 10 μM final assay concentration) mixture, a serially diluted compound (top final concentration is 50 μM or 10 uM, 3-fold serially diluted, 10 points) and His-tagged SOS1 protein (18 nM final assay concentration) were added into the assay plates (384 well microplate, black, Corning) sequentially. Plates are incubated at 24° C. for 1 hr. Following the incubation, Mab Anti-GST-Tb cryptate (Cisbio) and […] (Cisbio) were added and further incubated at 24° C. for another 1 hr. The TR-FRET signals (ex337 nm, em665 nm/620 nm) were read on BMG PHERAstar FSX instrument. The inhibition percentage of KRAS protein binding with SOS1 in presence of increasing concentrations of compounds was calculated based on the ratio of fluorescence at 665 nm to that at 620 nm. The IC50 value of each compound was calculated from fitting the data to the four-parameter logistic model by Dotmatics.

WT KRAS:SOS1 = WT KRAS:SOS1 (Homo sapiens, UniProt P01116); assay: KRAS WT:SOS1 GDP TR-FRET assay; format: binding; conditions: GST-WT KRAS 37.5 nM, GDP 10 μM, His-SOS1 18 nM
Sequence of WT KRAS:SOS1 (P01116 1-188 isoform P01116-2): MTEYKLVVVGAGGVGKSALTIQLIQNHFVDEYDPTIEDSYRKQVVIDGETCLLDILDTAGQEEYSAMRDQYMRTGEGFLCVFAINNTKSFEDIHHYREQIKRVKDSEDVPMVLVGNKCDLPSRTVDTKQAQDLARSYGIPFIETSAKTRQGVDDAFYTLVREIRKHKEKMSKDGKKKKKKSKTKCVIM
Method: as §1, §2

[1] = test system: pERK1/2 (THR202/TYR204) in AsPC-1 cells; assay: pERK Assay (HTRF) in AsPC-1 cells; format: cell-based; conditions: Homo sapiens, ASPC1, 2 h compound treatment
Method: AsPC-1 cell line was used in this study. […] 30000 cells per well were seeded into a 96-well plate and incubated overnight. […] After 2 h compound treatment, cells were lysed, and the pERK1/2 (THR202/TYR204) level in the cell lysates was detected by HTRF kit (Cisbio). In brief, a total of 16 μL of cell lysate from each well of a 96-well plate was transferred to a 384-well white assay plate. Lysate from each well was incubated with 2 μL of Eu3+-cryptate (donor) labeled anti-phospho-ERK1/2 and 2 μL of D2 (acceptor) labeled anti-phospho-ERK1/2 antibodies (Cisbio) overnight in dark at room temperature. When donor and acceptor are in close proximity, excitation of the donor with laser triggers a Fluorescence Resonance Energy Transfer (FRET) towards the acceptor, which in turn fluoresces at 655 nm wavelength. FRET signals were measured using a PHERAstar FSX reader (BMG Labtech).

Sequence of KRAS G12D:SOS1 (P01116 1-188 isoform P01116-2 G12D): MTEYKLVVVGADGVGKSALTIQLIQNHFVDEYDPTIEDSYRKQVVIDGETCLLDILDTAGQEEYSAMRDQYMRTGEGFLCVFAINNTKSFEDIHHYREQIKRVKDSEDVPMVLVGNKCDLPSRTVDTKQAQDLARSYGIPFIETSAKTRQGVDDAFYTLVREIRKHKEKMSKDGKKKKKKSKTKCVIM

Compound | IC50 (KRAS G12D:SOS1) | IC50 (WT KRAS:SOS1) | IC50 [1]
C[C@@H](CN1CCCCC1)Oc1nc(N2CC3CCC(C2)N3)c2cc(Cl)c(-c3ccc(F)c4sc(N)nc34)c(F)c2n1 [Example E11, 4-(4-(3,8-diazabicyclo[3.2.1]octan-3-yl)-6-chloro-8-fluoro-2-(((S)-1-(piperidin-1-yl)propan-2-yl)oxy)quinazolin-7-yl)-7-fluorobenzo[d]thiazol-2-amine] | 1.9 nM | 30 nM | 859 nM
C[C@@H](CN1CCCCC1)Oc1nc(N2CC3CC(C2)N3)c2cc(Cl)c(-c3ccc(F)c4sc(N)nc34)c(F)c2n1 [Example E12] | 3.5 nM | 124 nM | 2020 nM
CC(CN1CCNCC1)Oc1nc(N2CC3CCC(C2)N3)c2cc(Cl)c(-c3ccc(F)c4sc(N)nc34)c(F)c2n1 (stereo not drawn) [Example E13, 4-(4-(3,8-diazabicyclo[3.2.1]octan-3-yl)-6-chloro-8-fluoro-2-((1-(piperazin-1-yl)propan-2-yl)oxy)quinazolin-7-yl)-7-fluorobenzo[d]thiazol-2-amine] | 8.3 nM | 537 nM | > 10000 nM
CO[C@@H]1C[C@@H](COc2nc(N3CC4CCC(C3)N4)c3cc(Cl)c(-c4ccc(F)c5sc(N)nc45)c(F)c3n2)N(C)C1 [Example E14, 4-(4-(3,8-diazabicyclo[3.2.1]octan-3-yl)-6-chloro-8-fluoro-2-(((2S,4R)-4-methoxy-1-methylpyrrolidin-2-yl)methoxy)quinazolin-7-yl)-7-fluorobenzo[d]thiazol-2-amine] | 5.3 nM | 68 nM | 1160 nM
CN1C[C@H](F)C[C@H]1COc1nc(N2CC3CCC(C2)N3)c2cc(Cl)c(-c3ccc(F)c4sc(N)nc34)c(F)c2n1 [Example E15, 4-(4-(3,8-diazabicyclo[3.2.1]octan-3-yl)-6-chloro-8-fluoro-2-(((2S,4R)-4-fluoro-1-methylpyrrolidin-2-yl)methoxy)quinazolin-7-yl)-7-fluorobenzo[d]thiazol-2-amine] | 4.4 nM | 83 nM | 574 nM
CN1CCC[C@H]1COc1nc(N2CC3CCC(C2)N3)c2cc(Cl)c(-c3ccc(F)c4sc(N)nc34)c(F)c2n1 [Example E16, 4-(4-(3,8-diazabicyclo[3.2.1]octan-3-yl)-6-chloro-8-fluoro-2-(((S)-1-methylpyrrolidin-2-yl)methoxy)quinazolin-7-yl)-7-fluorobenzo[d]thiazol-2-amine] | 2.8 nM | 27 nM | 1520 nM
C[C@@H](CN1CCC(F)(F)CC1)Oc1nc(N2CC3CCC(C2)N3)c2cc(Cl)c(-c3ccc(F)c4sc(N)nc34)c(F)c2n1 [Example E17, 4-(4-(3,8-diazabicyclo[3.2.1]octan-3-yl)-6-chloro-2-(((S)-1-(4,4-difluoropiperidin-1-yl)propan-2-yl)oxy)-8-fluoroquinazolin-7-yl)-7-fluorobenzo[d]thiazol-2-amine] | 4.2 nM | 785 nM | 2880 nM
C[C@@H](CN1CCCCC1)Oc1nc(N2C3CCC2CNC3)c2cc(Cl)c(-c3ccc(F)c4sc(N)nc34)c(F)c2n1 [Example E18, 4-(4-(3,8-diazabicyclo[3.2.1]octan-8-yl)-6-chloro-8-fluoro-2-(((S)-1-(piperidin-1-yl)propan-2-yl)oxy)quinazolin-7-yl)-7-fluorobenzo[d]thiazol-2-amine] | 2.5 nM | 35 nM | 528 nM
C[C@@H](CN1CCC(F)(F)CC1)Oc1nc(N2C3CCC2CNC3)c2cc(Cl)c(-c3ccc(F)c4sc(N)nc34)c(F)c2n1 [Example E19, 4-(4-(3,8-diazabicyclo[3.2.1]octan-8-yl)-6-chloro-2-(((S)-1-(4,4-difluoropiperidin-1-yl)propan-2-yl)oxy)-8-fluoroquinazolin-7-yl)-7-fluorobenzo[d]thiazol-2-amine] | 10 nM | 566 nM | 3410 nM
C[C@@H](CN1CCC(F)(F)C1)Oc1nc(N2CC3CCC(C2)N3)c2cc(Cl)c(-c3ccc(F)c4sc(N)nc34)c(F)c2n1 [Example E20, 4-(4-(3,8-diazabicyclo[3.2.1]octan-3-yl)-6-chloro-2-(((S)-1-(3,3-difluoropyrrolidin-1-yl)propan-2-yl)oxy)-8-fluoroquinazolin-7-yl)-7-fluorobenzo[d]thiazol-2-amine] | 25 nM | > 10000 nM | 7260 nM
CC(CN1CCCCC1)Oc1nc(N2CC3COCC(C2)N3)c2cc(Cl)c(-c3ccc(F)c4sc(N)nc34)c(F)c2n1 (stereo not drawn) [Example E21, 4-(4-(3-oxa-7,9-diazabicyclo[3.3.1]nonan-7-yl)-6-chloro-8-fluoro-2-((1-(piperidin-1-yl)propan-2-yl)oxy)quinazolin-7-yl)-7-fluorobenzo[d]thiazol-2-amine] | 44 nM | 338 nM | > 10000 nM
C[C@@H](CN1CCS(=O)(=O)CC1)Oc1nc(N2CC3CCC(C2)N3)c2cc(Cl)c(-c3ccc(F)c4sc(N)nc34)c(F)c2n1 [Example E22, 4-((2S)-2-((7-(2-amino-7-fluorobenzo[d]thiazol-4-yl)-4-(3,8-diazabicyclo[3.2.1]octan-3-yl)-6-chloro-8-fluoroquinazolin-2-yl)oxy)propyl)thiomorpholine 1,1-dioxide] | 27 nM | > 3330 nM | 7700 nM
C[C@@H](CN1CCC1)Oc1nc(N2CC3CCC(C2)N3)c2cc(Cl)c(-c3ccc(F)c4sc(N)nc34)c(F)c2n1 [Example E23, 4-(2-(((S)-1-(azetidin-1-yl)propan-2-yl)oxy)-4-(3,8-diazabicyclo[3.2.1]octan-3-yl)-6-chloro-8-fluoroquinazolin-7-yl)-7-fluorobenzo[d]thiazol-2-amine] | 3.9 nM | 146 nM | 5220 nM
C[C@@H](CN1CCC(F)C1)Oc1nc(N2CC3CCC(C2)N3)c2cc(Cl)c(-c3ccc(F)c4sc(N)nc34)c(F)c2n1 (stereo partly drawn) [Example E24, 4-(4-(3,8-diazabicyclo[3.2.1]octan-3-yl)-6-chloro-8-fluoro-2-(((2S)-1-(3-fluoropyrrolidin-1-yl)propan-2-yl)oxy)quinazolin-7-yl)-7-fluorobenzo[d]thiazol-2-amine] | 2.8 nM | 210 nM | 1270 nM
C[C@@H](CN1CCC(F)CC1)Oc1nc(N2CC3CCC(C2)N3)c2cc(Cl)c(-c3ccc(F)c4sc(N)nc34)c(F)c2n1 [Example E25] | 2.2 nM | 88 nM | 860 nM
C[C@@H](CN1CCC(C#N)CC1)Oc1nc(N2CC3CCC(C2)N3)c2cc(Cl)c(-c3ccc(F)c4sc(N)nc34)c(F)c2n1 [Example E26, 1-((2S)-2-((7-(2-amino-7-fluorobenzo[d]thiazol-4-yl)-4-(3,8-diazabicyclo[3.2.1]octan-3-yl)-6-chloro-8-fluoroquinazolin-2-yl)oxy)propyl)piperidine-4-carbonitrile] | 2.9 nM | 140 nM | 819 nM
CC1CCCCN1C[C@H](C)Oc1nc(N2CC3CCC(C2)N3)c2cc(Cl)c(-c3ccc(F)c4sc(N)nc34)c(F)c2n1 (stereo partly drawn) [Example E27, 4-(4-(3,8-diazabicyclo[3.2.1]octan-3-yl)-6-chloro-8-fluoro-2-(((2S)-1-(2-methylpiperidin-1-yl)propan-2-yl)oxy)quinazolin-7-yl)-7-fluorobenzo[d]thiazol-2-amine] | 2.9 nM | 57 nM | 518 nM
CN1C[C@H](O)C[C@H]1COc1nc(N2CC3CCC(C2)N3)c2cc(Cl)c(-c3ccc(F)c4sc(N)nc34)c(F)c2n1 [Example E28, (3R,5S)-5-(((7-(2-amino-7-fluorobenzo[d]thiazol-4-yl)-4-(3,8-diazabicyclo[3.2.1]octan-3-yl)-6-chloro-8-fluoroquinazolin-2-yl)oxy)methyl)-1-methylpyrrolidin-3-ol] | 3 nM | 30 nM | 8860 nM
C[C@@H](CN1CCOCC1)Oc1nc(N2CC3CCC(C2)N3)c2cc(Cl)c(-c3ccc(F)c4sc(N)nc34)c(F)c2n1 [Example E29, 4-(4-(3,8-diazabicyclo[3.2.1]octan-3-yl)-6-chloro-8-fluoro-2-(((S)-1-morpholinopropan-2-yl)oxy)quinazolin-7-yl)-7-fluorobenzo[d]thiazol-2-amine] | 5.9 nM | 453 nM | 903 nM
